Values quoted from earlier work, collected in patent publication US20220249637A1, “COMBINATION THERAPY OF A CELL-MEDIATED CYTOTOXIC THERAPY AND AN INHIBITOR OF A PROSURVIVAL BCL2 FAMILY PROTEIN” (Juno Therapeutics, Inc., priority 2019, published 2022).

Assays:
[1] = system: CD3+CD4+ and CD3+CD8+ T cells; conditions: mouse, in vivo; cited from earlier work
CD3+ cells = conditions: human, in vivo; cited from earlier work

navitoclax
CD3+CD4+ and CD3+CD8+ T cells in the peripheral blood [1]: induced a relative and absolute reduction | average decrease of CD3+ cells (CD3+ cells): 241 cells/μL | decrease in T cells at final visits (CD3+ cells): maintained
